Patent US11360096B2, “Complex BRET technique for measuring biological interactions” (DUKE UNIVERSITY, priority 2019, dated 2022)

Legend:
[1] = tested on: Gαi:β-arrestin-2 complexes; assay: Split luciferase Gαi-LgBiT:β-arrestin-2-smBiT complex formation in cells overexpressing V2R; assay type: cell-based, human
Method: (§1) HEK293T cells seeded in 6-well plates were co-transfected with 500 ng of smBiT tagged β-arrestin-2, and either 250 ng of LgBiT tagged receptor or 2000 ng of untagged receptor and varying concentrations of LgBiT Gα protein expression vector (most experiments were conducted between 50-200 ng of Gα plasmid) or 2000 ng of mKO tagged β-arrestin-2 and 500 ng of smBiT tagged V2R using a calcium phosphate protocol. Twenty-four hours post-transfection, cells were plated onto clear bottom, white-walled 96-well plates at 50,000-100,000 cells/well in “BRET media”—clear minimum essential medium (GIBCO) supplemented with 2% FBS, 10 mM HEPES, 1×GLUTAMAX™, and 1× Anti-Anti (GIBCO). […] For luminescence split luciferase studies, plates were read with a BioTek SYNERGY™ Neo2 plate reader set at 37° C. with a 485 nm emission filter. […] For split luciferase luminescence experiments, plates were read both before and after ligand treatment to calculate Δnet change in luminescence and subsequently normalized to vehicle treatment. For complex BRET experiments, plates were read on a Berthold Mithras LB940 using pre-warmed media and instrument at 37° C. using a standard Rluc emissions filter (480 nm) with a custom mKO 542 nm long-pass emission filter (Chroma Technology Co., Bellows Falls, Vt.). The BRET ratio was calculated by dividing the mKO signal by the luciferase signal.

[2] = target: T1, Angiotensin II type 1 receptor (AT1R) (Homo sapiens, UniProt P30556); assay: TGF-α shedding assay of canonical G protein signaling at AT1R; assay type: cell-based; conditions: four Gα-family proteins tested
T1 sequence (P30556 1-359): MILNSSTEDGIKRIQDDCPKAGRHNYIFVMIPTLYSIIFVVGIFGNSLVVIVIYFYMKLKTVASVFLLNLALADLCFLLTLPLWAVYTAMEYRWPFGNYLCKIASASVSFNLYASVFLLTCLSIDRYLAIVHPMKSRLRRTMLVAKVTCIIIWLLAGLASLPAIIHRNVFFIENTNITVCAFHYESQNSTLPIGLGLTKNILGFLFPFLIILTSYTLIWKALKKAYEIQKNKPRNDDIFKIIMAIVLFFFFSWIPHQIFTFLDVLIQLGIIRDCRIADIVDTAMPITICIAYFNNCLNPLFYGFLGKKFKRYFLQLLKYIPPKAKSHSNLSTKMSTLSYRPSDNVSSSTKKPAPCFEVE

[3] = tested on: human pulmonary arterial smooth muscle cells (PASMCs); assay: Wound-healing migration assay, primary human cells; assay type: cell-based
Method: Human pulmonary arterial smooth muscle cells (PASMCs) were isolated from human lungs from a de-identified health donor (International Institute for the Advancement of Medicine, Edison, N.J.) with Institutional Review Board approval. Human PASMCs were seeded into 24-well plates at a density of 1.5×10^4 cells per well in Human Smooth Muscle Cell Basal Medium supplemented with Human SMC Growth Supplement (Cell Application, Inc.). At 30% confluency, cells were transfected with 50 ng of control or β-arrestin-1 and β-arrestin-2 ON […]™ siRNA pools (Dharmacon, Inc.). When the cells reached 100% confluency, they were serum starved for 4 hours with 2 hrs of PTX (200 ng/mL) treatment. Scratches were made using small pipette tips. Cells were washed using DPBS and stimulated with basal smooth muscle cell medium containing 1 μM Angiotensin-II (Millipore Sigma) or 10 μM TRV120023 (Genscript USA Inc.). The wound closure was monitored using live-cell station Zeiss Axio Observer microscope (Carl Zeiss, Thornwood, N.Y.). The images were captured in real-time at 0 hour and for every hour until 16 hours. The initial edges of the scratch at 0 hour time point were marked and migrated distance 12-16 hrs afterwards was measured using METAMORPH® Premier software (Molecular Devices, San Jose, Calif.) at the Duke Light Microscopy Core Facility (Durham, N.C.).

[4] = tested on: HEK 293 cells stably expressing AT1R; assay: Wound-healing migration assay, immortalized cells; assay type: cell-based, human; conditions: PTX pretreatment 200 ng/mL
Method: HEK 293T cells stably expressing the AT1R were utilized. Briefly, 70 μl of cell suspension at a concentration of 5×10^5 cells per mL was applied into each well of silicone inserts (Ibidi, Martinsried, Germany) on 24 well plate, and after 24 hrs incubation, the inserts were removed to create a wound field. The cells were incubated additionally for 12 hrs with 1 μM of TRV120023 and visualized with a Zeiss Axio Observer microscope (Carl Zeiss, Thornwood, N.Y.). Wound healing was then analyzed using ImageJ (NIH, Bethesda, Md.) wound healing tool macros.

[5] = target: T2, V2R:β-arrestin-2 complexes (Homo sapiens, UniProt P30518); assay: Split luciferase V2R-LgBiT:β-arrestin-2-smBiT association; assay type: cell-based; conditions: V2R or β2AR
T2 construct: 3xHA (N); expressed in transfected cells; host or cells: HEK293T
Method: as §1

ERK1/2 phosphorylation = assay: Phospho-ERK/total ERK immunoblot in 'triple G' HEK 293 cells overexpressing V2R; assay type: cell-based, human; conditions: agonist treated
Method: Cells were serum starved for at least four hours, stimulated with the indicated ligand, subsequently washed 1× with ice-cold PBS, lysed in ice-cold RIPA buffer containing phosphatase and protease inhibitors (Phos-STOP (Roche), Complete EDTA free (Sigma)) and rotated for forty-five minutes, and cleared of insoluble debris by centrifugation at >12,000×g (4° C., 15 minutes), after which the supernatant was collected. Protein was resolved on SDS-10% polyacrylamide gels, transferred to nitrocellulose membranes, and immunoblotted with the indicated primary antibody overnight (4° C.). Phospho-ERK (Cell Signaling Technology, #9106) and total ERK (Millipore #06-182) were used to assess ERK activation. A1-CT antibody that recognizes both isoforms of β-arrestin was utilized, with protein loading assessed by alpha-tubulin (Sigma #T6074). Galpha i-1 (13533, Santa Cruz Biotechnology), Galpha q/11/14 (365906, Santa Cruz Biotechnology), Galpha 12 (515445, Santa Cruz Biotechnology), Galpha 13 (293424, Santa Cruz Biotechnology), Galpha s/olf (55545, Santa Cruz Biotechnology) antibodies were used to verify ‘Δ3G’ HEK 293 cells.
Horseradish peroxidase-conjugated polyclonal mouse anti-rabbit-IgG or anti-mouse-IgG were used as secondary antibodies. […] For quantification, phospho-protein signal was normalized to total protein signal using Image Lab (Bio-Rad) within the same blot.

CCOc1ccc2c(c1)C1(CCC(OCCN3CCOCC3)CC1)C(=O)N2S(=O)(=O)c1ccc(C(=O)NC(C)(C)C)cc1OC (stereo not shown) [SR121463]
Gαi:β-arrestin complex formation after antagonist pretreatment ([1]; HEK 293 cells overexpressing V2R, pretreatment 30 min, 10 uM): prevented formation of Gαi:β-arrestin complexes

Angiotensin II [AngII]
Canonical G protein signaling at AT1R [2]: canonically signals through both Gαq and Gαi

pertussis toxin
Pertussis toxin sensitivity of migration towards TRV120023 [3]: pertussis toxin sensitive
Sensitivity of the Gαi:β-arrestin interaction to pertussis toxin ([1]; pertussis toxin pretreatment): partially sensitive to pertussis toxin
Reduction of TRV120023-mediated migration by pertussis toxin pretreatment [4]: ~50%
Effect of pertussis toxin pretreatment on β-arrestin recruitment to receptor [5]: did not affect β-arrestin recruitment to either the V2R or β2AR
ERK phosphorylation after pertussis toxin pretreatment (ERK1/2 phosphorylation): abrogated, but did not eliminate, ERK phosphorylation
